According to US10881662B2, “Intracellular ATP enhancer” (StaGen Co., Ltd., priority 2016, dated 2021):

Columns and labels:
[1] = test system: patients with chronic stable angina; details: high-dose administration; cited from earlier work
[2] = test system: serum uric acid; assay: Test Example 1: serum uric acid value (uricase-peroxidase method); format: in vivo, human
Experimental: For a clinical chemistry automatic analyzer, a dry clinical chemistry analysis measuring unit manufactured by ARKRAY, Inc. was used, and the serum uric acid value was measured by using the uricase-peroxidase method.
The following administration test was conducted for 16 Japanese healthy adult males, one subject in Phase I and 15 subjects in Phase II divided into Group A to Group E with 3 subjects each. […]
After Phase I, the following contents were administered to three subjects in each group: […]
(§1) Group E: febuxostat 30 mg twice a day for 14 days.

[3] = test system: urinary uric acid; assay: Test Example 1: urinary uric acid concentration/creatinine concentration; format: in vivo, human; details: Week 0 to Week 2
Experimental: Since the urinary uric acid concentration varies with urine volume, a urinary uric acid amount was evaluated by using a urinary uric acid/creatinine value acquired by dividing by urinary creatinine concentration. The measurement method of the uric acid value was the same as that for the serum uric acid value.
(§2) The following administration test was conducted for 16 Japanese healthy adult males, one subject in Phase I and 15 subjects in Phase II divided into Group A to Group E with 3 subjects each.
(§3) After Phase I, the following contents were administered to three subjects in each group:
(§4) Group A: febuxostat 20 mg twice a day for 14 days;
(§5) Group B: inosine 500 mg of twice a day for 14 days;
(§6) Group C: febuxostat 20 mg and inosine 500 mg twice a day for 14 days;
(§7) Group D: febuxostat 20 mg and inosine 1000 mg twice a day for 14 days; and
as §1

[4] = test system: blood ATP; assay: Test Example 1: blood purine concentrations by HPLC, ATP; format: in vivo, human; details: Week 0 to Week 2
Experimental: (§8) Various purines in peripheral blood were measured according to the Reference. Briefly, peripheral blood was collected with EDTA, 500 μL mixed with 500 μL ice cold 8% PCA, immediately vortexed for five seconds, and centrifuged at 12,000×g for 10 minutes at 4° C., and the supernatant was stored at −80° C. The processed sample was then dissolved, with 40 μL of 2M K2CO3 in 6 M KOH added to 650 μL of the solution to simultaneously precipitate the PCA and neutralize the solution. After this solution was centrifuged at 12,000×g for 10 minutes at 4° C., 160 μL of a mobile phase was added to 40 μL of the supernatant and applied to HPLC. The conditions of HPLC were also set according to the Reference. The amounts of purines are expressed in molar quantity contained in 1 L of whole blood.
(§9) Coolen E J, Arts I C, Swennen E L, Bast A, Stuart M A, Dagnelie P C. Simultaneous determination of adenosine triphosphate and its metabolites in human whole blood by RP-HPLC and UV-detection. J Chromatogr B Analyt Technol Biomed Life Sci. 2008 Mar. 15; 864(1-2): 43-51.
as §2, §3, §4, §5, §6, §7, §1

[5] = test system: blood Hx (hypoxanthine); assay: Test Example 1: blood purine concentrations by HPLC, hypoxanthine; format: in vivo, human; details: Week 0 to Week 2
Experimental: as §8, §9, §2, §3, §4, §5, §6, §7, §1

[6] = test system: blood X (xanthine); assay: Test Example 1: blood purine concentrations by HPLC, xanthine; format: in vivo, human; details: Week 0 to Week 2
Experimental: as §8, §9, §2, §3, §4, §5, §6, §7, §1

[7] = test system: urinary Hx; assay: Test Example 1: urinary purine concentrations, hypoxanthine; format: in vivo, human; details: Week 0 to Week 2, FIG. 5; single administration or combined use, doses not distinguished
Experimental: as §8
The purine concentrations were measured by the same method as in (4).
as §2, §3, §4, §5, §6
Group D: febuxostat 20 mg and inosine 1000 mg twice a day for 14 days; and […]

[8] = test system: urinary X; assay: Test Example 1: urinary purine concentrations, xanthine; format: in vivo, human; details: for change in urinary X concentration: Week 0 to Week 2, FIG. 5, single administration or combined use, doses not distinguished
[9] = test system: model mouse of amyotrophic lateral sclerosis; details: model mouse of ALS; cited from earlier work
[10] = test system: erythrocytes with low ATP; details: erythrocytes left at low temperature for 20 to 30 days, inosine added, left to stand for 1 hour; cited from earlier work
[11] = test system: Parkinson's disease; details: administration of inosine; cited from earlier work
[12] = test system: multiple sclerosis; details: administration of inosine; cited from earlier work
[13] = Group E: febuxostat 30 mg twice a day for 14 days
[14] = Groups A-C: febuxostat 20 mg and/or inosine 500 mg twice a day for 14 days
[15] = Group E: febuxostat 60 mg/day alone for 14 days

Compound: Oc1ncnc2[nH]ncc12 [allopurinol]
- symptoms of chronic stable angina [1]: suppressed

Compound: Cc1nc(-c2ccc(OCC(C)C)c(C#N)c2)sc1C(=O)O [febuxostat]
- serum uric acid value, lowest observed ([2]; Phase II Group E: febuxostat 30 mg twice a day (60 mg/day) for 14 days): less than 2 mg/dL
- serum uric acid value reduced by ([2]; Phase II Group E: febuxostat 30 mg twice a day for 14 days): 3.93 mg/dL
- serum uric acid value reduced by ([2]; Phase II Groups A and C: febuxostat 20 mg alone or with inosine 500 mg, twice a day for 14 days): 2.53 mg/dL
- serum uric acid value, not reduced to less than ([2]; Phase II, any of the administration examples of 40 mg/day of febuxostat, 14 days): ≥ 2 mg/dL
- change in urinary uric acid/creatinine [3, 13]: reduced
- change in urinary uric acid/creatinine [3, 14]: reduced
- change in blood ATP concentration [4, 13]: No certain tendency was observed
- change in blood ATP concentration [4, 14]: not changed
- change in blood Hx (hypoxanthine) concentration [5, 15]: slight rise
- change in blood Hx (hypoxanthine) concentration [5, 14]: unchanged
- change in blood X (xanthine) concentration [6, 15]: rise
- change in blood X (xanthine) concentration [6, 14]: significantly increased
- change in urinary Hx concentration [7]: moderate rise
- maximum concentration of urinary X [8, 13]: 867.7 µM
- maximum concentration of urinary X [8, 14]: 556.0 µM
- change in urinary X concentration [8]: significantly increased
- disease progression of amyotrophic lateral sclerosis [9]: inhibits disease progression

Compound: OC[C@H]1O[C@@H](n2cnc3c(O)ncnc32)[C@H](O)[C@@H]1O [inosine]
- serum uric acid value increase due to inosine in the presence of febuxostat ([2]; 1 g/day inosine in the presence of 40 mg/day of febuxostat (Group C versus Group A)): 0.3 mg/dL
- serum uric acid value increase due to inosine in the presence of febuxostat ([2]; 2 g/day inosine in the presence of 40 mg/day of febuxostat (Group D versus Group A)): 1.06 mg/dL
- serum uric acid value raised by, on average ([2]; Phase II Group B: inosine 500 mg twice a day (1 g per day) for 14 days, without febuxostat): 2.57 mg/dL
- serum uric acid value, highest observed (up to) ([2]; Phase II Group B: inosine 500 mg twice a day for 14 days): up to 8.1 mg/dL
- change in urinary uric acid/creatinine [3, 14]: significantly increased
- change in blood ATP concentration [4, 14]: not changed
- change in blood Hx (hypoxanthine) concentration [5, 14]: neither Hx nor X changed
- change in blood X (xanthine) concentration [6, 14]: neither Hx nor X changed
- change in urinary Hx concentration [7]: no rise
- maximum concentration of urinary X [8, 14]: 61.9 µM
- change in urinary X concentration [8]: no rise
- ATP in erythrocytes [10]: ATP increased
- symptoms of Parkinson's disease [11]: alleviates symptoms
- symptoms of multiple sclerosis [12]: alleviates symptoms
